# Read-outs that look alike come from different tables or passages of the source.
# Experiments:
# [1] = tested on: EMRSA strains; assay: MIC of vancomycin or flucloxacillin with and without Aurograb (Table 3a); assay type: cell-based, S. aureus; conditions: Staphylococcus aureus
# Method: (§1) Strains of MRSA were grown overnight in nutrient broth and diluted to give an inoculum of 1×10^3 cells per mL. […] Cultures were incubated for a further 2 days. The minimum growth-inhibitory concentration (MIC) is defined as the […] concentration of antibiotic at which no bacterial growth occurs and is determined by spectrophotometric evaluation of the lack of turbidity (growth) in culture. MICs were determined in the presence of exogenous Aurograb or in the presence of Aurograb formulation buffer (negative control).
# The experiments were also performed using flucloxacillin instead of vancomycin to investigate how the efficacy of penicillin-type […] was affected by Aurograb.
# [2] = tested on: MRSA strains (VISA and parent EMRSA-15); assay: MIC of vancomycin in the presence of Aurograb (Table 3); assay type: cell-based, S. aureus; conditions: Staphylococcus aureus
# Method: as §1
smiles,measurement,setting,value
"CN[C@H](CC(C)C)C(=O)N[C@H]1C(=O)N[C@@H](CC(N)=O)C(=O)N[C@H]2C(=O)N[C@H]3C(=O)N[C@H](C(=O)N[C@H](C(=O)O)c4cc(O)cc(O)c4-c4cc3ccc4O)[C@H](O)c3ccc(c(Cl)c3)Oc3cc2cc(c3O[C@@H]2O[C@H](CO)[C@@H](O)[C@H](O)[C@H]2O[C@H]2C[C@](C)(N)[C@H](O)[C@H](C)O2)Oc2ccc(cc2Cl)[C@H]1O [Vancomycin, vancomycin]",MIC,"[1]; read-out: MIC to vancomycin + 100 μg/ml Aurograb, EMRSA strain 1, + 100 μg/ml Aurograb",0.03 µg/mL
same,MIC,"[1]; read-out: MIC to vancomycin + 100 μg/ml Aurograb, EMRSA strain 2, + 100 μg/ml Aurograb",0.03 µg/mL
same,MIC,"[1]; read-out: MIC to vancomycin + 100 μg/ml Aurograb, EMRSA strain 3, + 100 μg/ml Aurograb",0.03 µg/mL
same,MIC,"[1]; read-out: MIC to vancomycin + 100 μg/ml Aurograb, EMRSA strain 4, + 100 μg/ml Aurograb",0.03 µg/mL
same,MIC,"[1]; read-out: MIC to vancomycin + 100 μg/ml Aurograb, EMRSA strain 5, + 100 μg/ml Aurograb",0.03 µg/mL
same,MIC,"[1]; read-out: MIC to vancomycin + 100 μg/ml Aurograb, EMRSA strain 6, + 100 μg/ml Aurograb",0.0125 µg/mL
same,MIC,"[1]; read-out: MIC to vancomycin + 100 μg/ml Aurograb, EMRSA strain 7, + 100 μg/ml Aurograb",0.03 µg/mL
same,MIC,"[1]; read-out: MIC to vancomycin + 100 μg/ml Aurograb, EMRSA strain 8, + 100 μg/ml Aurograb",0.0125 µg/mL
same,MIC,"[1]; read-out: MIC to vancomycin + 100 μg/ml Aurograb, EMRSA strain 9, + 100 μg/ml Aurograb",0.0125 µg/mL
same,MIC,"[1]; read-out: MIC to vancomycin + 100 μg/ml Aurograb, EMRSA strain 10, + 100 μg/ml Aurograb",0.03 µg/mL
same,MIC,"[1]; read-out: MIC to vancomycin + 100 μg/ml Aurograb, EMRSA strain 11, + 100 μg/ml Aurograb",0.03 µg/mL
same,MIC,"[1]; read-out: MIC to vancomycin + 100 μg/ml Aurograb, EMRSA strain 12, + 100 μg/ml Aurograb",0.03 µg/mL
same,MIC,"[1]; read-out: MIC to vancomycin + 100 μg/ml Aurograb, EMRSA strain 13, + 100 μg/ml Aurograb",0.03 µg/mL
same,MIC,"[1]; read-out: MIC to vancomycin + 100 μg/ml Aurograb, EMRSA strain 14, + 100 μg/ml Aurograb",0.03 µg/mL
same,MIC,"[1]; read-out: MIC to vancomycin + 100 μg/ml Aurograb, EMRSA strain 15, + 100 μg/ml Aurograb",0.03 µg/mL
same,MIC,"[1]; read-out: MIC to vancomycin + 100 μg/ml Aurograb, EMRSA strain 16, + 100 μg/ml Aurograb",0.03 µg/mL
same,MIC,"[1]; read-out: MIC to vancomycin, EMRSA strain 1",0.5 µg/mL
same,MIC,"[1]; read-out: MIC to vancomycin, EMRSA strain 2",0.5 µg/mL
same,MIC,"[1]; read-out: MIC to vancomycin, EMRSA strain 3",0.5 µg/mL
same,MIC,"[1]; read-out: MIC to vancomycin, EMRSA strain 4",0.5 µg/mL
same,MIC,"[1]; read-out: MIC to vancomycin, EMRSA strain 5",0.5 µg/mL
same,MIC,"[1]; read-out: MIC to vancomycin, EMRSA strain 6",0.5 µg/mL
same,MIC,"[1]; read-out: MIC to vancomycin, EMRSA strain 7",0.5 µg/mL
same,MIC,"[1]; read-out: MIC to vancomycin, EMRSA strain 8",0.5 µg/mL
same,MIC,"[1]; read-out: MIC to vancomycin, EMRSA strain 9",0.5 µg/mL
same,MIC,"[1]; read-out: MIC to vancomycin, EMRSA strain 10",0.5 µg/mL
same,MIC,"[1]; read-out: MIC to vancomycin, EMRSA strain 11",0.5 µg/mL
same,MIC,"[1]; read-out: MIC to vancomycin, EMRSA strain 12",0.5 µg/mL
same,MIC,"[1]; read-out: MIC to vancomycin, EMRSA strain 13",0.5 µg/mL
same,MIC,"[1]; read-out: MIC to vancomycin, EMRSA strain 14",0.25 µg/mL
same,MIC,"[1]; read-out: MIC to vancomycin, EMRSA strain 15",0.5 µg/mL
same,MIC,"[1]; read-out: MIC to vancomycin, EMRSA strain 16",0.5 µg/mL
same,MIC,"[2]; read-out: MIC to Vancomycin in the presence of Aurograb, Parent EMRSA-15, Aurograb 0 μg/ml",1 µg/mL
same,MIC,"[2]; read-out: MIC to Vancomycin in the presence of Aurograb, Parent EMRSA-15, Aurograb 80 μg/ml",0.25 µg/mL
same,MIC,"[2]; read-out: MIC to Vancomycin in the presence of Aurograb, Parent EMRSA-15, Aurograb 125 μg/ml",< 0.125 µg/mL
same,MIC,"[2]; read-out: MIC to Vancomycin in the presence of Aurograb, VISA EMRSA-1, Aurograb 0 μg/ml",8 µg/mL
same,MIC,"[2]; read-out: MIC to Vancomycin in the presence of Aurograb, VISA EMRSA-1, Aurograb 60 μg/ml",4 µg/mL
same,MIC,"[2]; read-out: MIC to Vancomycin in the presence of Aurograb, VISA EMRSA-1, Aurograb 80 μg/ml",2 µg/mL
same,MIC,"[2]; read-out: MIC to Vancomycin in the presence of Aurograb, VISA EMRSA-1, Aurograb 125 μg/ml",< 0.125 µg/mL
same,MIC,"[2]; read-out: MIC to Vancomycin in the presence of Aurograb, VISA EMRSA-2, Aurograb 0 μg/ml",4 µg/mL
same,MIC,"[2]; read-out: MIC to Vancomycin in the presence of Aurograb, VISA EMRSA-2, Aurograb 60 μg/ml",0.5 µg/mL
same,MIC,"[2]; read-out: MIC to Vancomycin in the presence of Aurograb, VISA EMRSA-2, Aurograb 80 μg/ml",1 µg/mL
same,MIC,"[2]; read-out: MIC to Vancomycin in the presence of Aurograb, VISA EMRSA-2, Aurograb 125 μg/ml",< 0.125 µg/mL
same,MIC,"[2]; read-out: MIC to Vancomycin in the presence of Aurograb, VISA EMRSA-8, Aurograb 0 μg/ml",8 µg/mL
same,MIC,"[2]; read-out: MIC to Vancomycin in the presence of Aurograb, VISA EMRSA-8, Aurograb 60 μg/ml",2 µg/mL
same,MIC,"[2]; read-out: MIC to Vancomycin in the presence of Aurograb, VISA EMRSA-8, Aurograb 80 μg/ml",1 µg/mL
same,MIC,"[2]; read-out: MIC to Vancomycin in the presence of Aurograb, VISA EMRSA-8, Aurograb 125 μg/ml",< 0.125 µg/mL
same,MIC,"[2]; read-out: MIC to Vancomycin in the presence of Aurograb, VISA EMRSA-11, Aurograb 0 μg/ml",4 µg/mL
same,MIC,"[2]; read-out: MIC to Vancomycin in the presence of Aurograb, VISA EMRSA-11, Aurograb 60 μg/ml",4 µg/mL
same,MIC,"[2]; read-out: MIC to Vancomycin in the presence of Aurograb, VISA EMRSA-11, Aurograb 80 μg/ml",1 µg/mL
same,MIC,"[2]; read-out: MIC to Vancomycin in the presence of Aurograb, VISA EMRSA-11, Aurograb 125 μg/ml",< 0.125 µg/mL
same,MIC,"[2]; read-out: MIC to Vancomycin in the presence of Aurograb, VISA EMRSA-12, Aurograb 0 μg/ml",8 µg/mL
same,MIC,"[2]; read-out: MIC to Vancomycin in the presence of Aurograb, VISA EMRSA-12, Aurograb 60 μg/ml",4 µg/mL
same,MIC,"[2]; read-out: MIC to Vancomycin in the presence of Aurograb, VISA EMRSA-12, Aurograb 80 μg/ml",2 µg/mL
same,MIC,"[2]; read-out: MIC to Vancomycin in the presence of Aurograb, VISA EMRSA-12, Aurograb 125 μg/ml",< 0.125 µg/mL
same,MIC,"[2]; read-out: MIC to Vancomycin in the presence of Aurograb, VISA EMRSA-15, Aurograb 0 μg/ml",8 µg/mL
same,MIC,"[2]; read-out: MIC to Vancomycin in the presence of Aurograb, VISA EMRSA-15, Aurograb 60 μg/ml",4 µg/mL
same,MIC,"[2]; read-out: MIC to Vancomycin in the presence of Aurograb, VISA EMRSA-15, Aurograb 80 μg/ml",2 µg/mL
same,MIC,"[2]; read-out: MIC to Vancomycin in the presence of Aurograb, VISA EMRSA-15, Aurograb 125 μg/ml",< 0.125 µg/mL

# From patent publication US20070202116A1, “Treatment of micro-organism infection” (priority 2001, published 2007)
